What was measured:
Assay in all cases: Test C pre-/postemergence greenhouse test, plant response rating 0-100
Assay type in all cases: in vivo
[1] = test system: blackgrass (Alopecurus myosuroides); settings: Postemergence; for Plant response rating, Blackgrass: scale 0 to 100
In short: (§1)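 Plants were scored visually against controls 13–15 days after treatment on a 0–100 scale, 100 meaning complete control. Test chemicals, formulated in surfactant-containing non-phytotoxic solvent, went preemergence onto seeds in loam–sand blend or postemergence onto 1- to 4-leaf plants (2–18 cm) grown in peat-based mix.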

corn (Zea mays) = settings: Postemergence; for Plant response rating, Corn: scale 0 to 100
In short: as §1

[2] = test system: galium (catchweed bedstraw, Galium aparine); settings: Postemergence; for Plant response rating, Galium: scale 0 to 100
In short: as §1

[3] = test system: johnsongrass (Sorghum halepense); settings: Postemergence; for Plant response rating, Johnsongrass: scale 0 to 100
In short: as §1

[4] = test system: lambsquarters (Chenopodium album); settings: Postemergence; for Plant response rating, Lambsquarters: scale 0 to 100
In short: as §1

[5] = test system: large (Lg) crabgrass (Digitaria sanguinalis); settings: Postemergence; for Plant response rating, Crabgrass, Large: scale 0 to 100
In short: as §1

[6] = test system: morningglory (Ipomoea coccinea); settings: Postemergence; for Plant response rating, Morningglory: scale 0 to 100
In short: as §1

[7] = test system: pigweed (Amaranthus retroflexus); settings: Postemergence; for Plant response rating, Pigweed: scale 0 to 100
In short: as §1

[8] = test system: ragweed (common ragweed, Ambrosia elatior)
In short: as §1

[9] = test system: velvetleaf (Abutilon theophrasti)
In short: as §1

[10] = test system: winter wheat (Triticum aestivum)
In short: as §1

[11] = test system: yellow nutsedge (Cyperus esculentus); settings: Postemergence; for Plant response rating, Nutsedge, Yellow: scale 0 to 100
In short: as §1

[12] = Postemergence, 250 g ai/ha, scale 0 to 100
[13] = Postemergence, 500 g ai/ha, scale 0 to 100
[14] = Preemergence, 0 to 100 scale (0 no effect, 100 complete control), rate 500 g ai/ha per head r3, sub-head of this section not shown

`O=C(c1ccccc1)c1cn(S(=O)(=O)C(F)(F)F)nc1-c1cc(Cl)cc(Cl)c1` [Compound 2] was tested, and the “Plant response rating (0 to 100), Blackgrass” value ([1]; 62 g ai/ha) was 0, the “Plant response rating, Blackgrass” value ([1]; 125 g ai/ha) was 0 and the “Plant response rating, Blackgrass” value ([1]; 250 g ai/ha) was 0. The “Plant response rating, Blackgrass” value ([1]; 500 g ai/ha) was 0, the “Plant response rating (0 to 100), Corn” value (corn (Zea mays); 62 g ai/ha) was 0 and the “Plant response rating (0 to 100), Corn” value (corn (Zea mays); 125 g ai/ha) was 0. For the same compound, the “Plant response rating, Corn” value (corn (Zea mays); 250 g ai/ha) was 0, the “Plant response rating, Corn” value (corn (Zea mays); 500 g ai/ha) was 0 and the “Plant response rating (0 to 100), Galium” value ([2]; 62 g ai/ha) was 0. For the same compound, the “Plant response rating (0 to 100), Galium” value ([2]; 125 g ai/ha) was 0, the “Plant response rating, Galium” value ([2]; 250 g ai/ha) was 50 and the “Plant response rating, Galium” value ([2]; 500 g ai/ha) was 50. The “Plant response rating (0 to 100), Johnsongrass” value ([3]; 62 g ai/ha) was 0, the “Plant response rating (0 to 100), Johnsongrass” value ([3]; 125 g ai/ha) was 0 and the “Plant response rating, Johnsongrass” value ([3]; 250 g ai/ha) was 0. The “Plant response rating, Johnsongrass” value ([3]; 500 g ai/ha) was 0, the “Plant response rating (0 to 100), Lambsquarters” value ([4]; 62 g ai/ha) was 85 and the “Plant response rating (0 to 100), Lambsquarters” value ([4]; 125 g ai/ha) was 85. The “Plant response rating, Lambsquarters” value ([4]; 250 g ai/ha) was 85, the “Plant response rating, Lambsquarters” value ([4]; 500 g ai/ha) was 90 and the “Plant response rating (0 to 100), Crabgrass, Large” value ([5]; 62 g ai/ha) was 0. The “Plant response rating (0 to 100), Crabgrass, Large” value ([5]; 125 g ai/ha) was 0, the “Plant response rating, Crabgrass, Large” value ([5]; 250 g ai/ha) was 0 and the “Plant response rating, Crabgrass, Large” value ([5]; 500 g ai/ha) was 0. The “Plant response rating (0 to 100), Morningglory” value ([6]; 62 g ai/ha) was 0, the “Plant response rating (0 to 100), Morningglory” value ([6]; 125 g ai/ha) was 0 and the “Plant response rating, Morningglory” value ([6]; 250 g ai/ha) was 0. For the same compound, the “Plant response rating, Morningglory” value ([6]; 500 g ai/ha) was 10, the “Plant response rating (0 to 100), Pigweed” value ([7]; 62 g ai/ha) was 90 and the “Plant response rating (0 to 100), Pigweed” value ([7]; 125 g ai/ha) was 90. The “Plant response rating, Pigweed” value ([7]; 250 g ai/ha) was 98, the “Plant response rating, Pigweed” value ([7]; 500 g ai/ha) was 100 and the “Plant response rating (0 to 100), Ragweed” value ([8]; Postemergence, 62 g ai/ha) was 40. The “Plant response rating (0 to 100), Ragweed” value ([8]; Postemergence, 125 g ai/ha) was 60, the “Plant response rating, Ragweed” value [8, 12] was 60 and the “Plant response rating, Ragweed” value [8, 13] was 70. For the same compound, the “Plant response rating, Ragweed” value [8, 14] was 0, the “Plant response rating (0 to 100), Velvetleaf” value ([9]; Postemergence, 62 g ai/ha) was 75 and the “Plant response rating (0 to 100), Velvetleaf” value ([9]; Postemergence, 125 g ai/ha) was 75. For the same compound, the “Plant response rating, Velvetleaf” value [9, 12] was 80, the “Plant response rating, Velvetleaf” value [9, 13] was 85 and the “Plant response rating, Velvetleaf” value [9, 14] was 35. For the same compound, the “Plant response rating (0 to 100), Wheat” value ([10]; Postemergence, 62 g ai/ha) was 0, the “Plant response rating (0 to 100), Wheat” value ([10]; Postemergence, 125 g ai/ha) was 0 and the “Plant response rating, Wheat” value [10, 12] was 0. The “Plant response rating, Wheat” value [10, 13] was 0, the “Plant response rating, Wheat” value ([10]; Preemergence, 0 to 100 scale (0 no effect, 100 complete control), rate 500 g ai/ha) was 0 and the “Plant response rating (0 to 100), Nutsedge, Yellow” value ([11]; 62 g ai/ha) was 0. The “Plant response rating (0 to 100), Nutsedge, Yellow” value ([11]; 125 g ai/ha) was 0, the “Plant response rating, Nutsedge, Yellow” value ([11]; 250 g ai/ha) was 0 and the “Plant response rating, Nutsedge, Yellow” value ([11]; 500 g ai/ha) was 0.

From patent US10167262B2, “Herbicidal substituted 3-arylpyrazoles” (FMC CORPORATION, priority 2014, dated 2019)
